From patent US20020082391A1, “Human occludin, its uses and enhancement of drug absorption using occludin inhibitors” (priority 1996, published 2002)

T1: human occludin (human, UniProt Q16625 1-522)
T1 sequence: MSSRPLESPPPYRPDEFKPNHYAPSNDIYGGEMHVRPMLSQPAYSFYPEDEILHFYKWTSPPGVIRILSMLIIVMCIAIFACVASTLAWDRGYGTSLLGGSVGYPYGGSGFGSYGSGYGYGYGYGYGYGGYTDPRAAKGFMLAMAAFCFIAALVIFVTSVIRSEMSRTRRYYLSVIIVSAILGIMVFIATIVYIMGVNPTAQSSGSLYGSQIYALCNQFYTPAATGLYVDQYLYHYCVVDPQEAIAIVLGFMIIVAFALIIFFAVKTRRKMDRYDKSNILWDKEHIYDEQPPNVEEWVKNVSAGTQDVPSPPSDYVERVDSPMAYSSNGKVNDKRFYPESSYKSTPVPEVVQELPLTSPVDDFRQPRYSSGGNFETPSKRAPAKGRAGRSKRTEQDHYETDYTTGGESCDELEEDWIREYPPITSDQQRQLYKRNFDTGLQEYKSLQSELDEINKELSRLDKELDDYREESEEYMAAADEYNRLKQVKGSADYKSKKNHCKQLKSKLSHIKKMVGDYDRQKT

B1: peptide #1 (N-terminal half of occludin extracellular loop #1) (peptide)
peptide: CDRGYGTSLLGGSVGYPYGGSGFG

Columns and labels:
[1] = tested on: occludin-transfected fibroblasts (Rat-1 cell clone); experiment: Cell adhesion (suspended cell aggregation) assay, occludin-transfected Rat-1 fibroblasts; assay type: cell-based; details: peptide at 100 μM
Method: For immunofluorescent localization studies, cells were grown on glass coverslips. […] MDCK cells were transfected and induced with sodium butyrate as described above and stable cells lines were plated and induced as described for immunoblots. Cells were washed with PBS, fixed in 1% paraformaldehyde in PBS, extracted with 0.1% Triton-X 100 and quenched with 50 mM NH4Cl in PBS. In experiments to test the accessibility to the anti-peptide #1 antibody, incubation of the primary antibody was performed without permeabilization of cells with Triton-X 100. […] Cell Adhesion Assay Adhesion of stably transfected cell lines was measured by a modification of the procedure described by Wesseling, J., et al., Mol. Biol. Cell 7:565-577 (1996). […] After 30 minutes, cells were mechanically dissociated, counted and resuspended at a concentration of 2.5×10^5 cells/ml in Ca^2+-Mg^2+-free PBS, 1 mM EDTA and 0.1 mg/ml DNAse. […] At each time point, the number of particles in two 175 ul aliquot of each tube was determined in a Coulter Counter (Hialeah, FL). […] 100% of cells were single at the beginning of all assays, as determined by phase-contrast microscopy. […]
The ability of transfected occludin to confer adhesion onto fibroblast cell lines was assessed using a suspended cell aggregation assay (Wesseling, J., et al., Mol. Biol. Cell 7: 565-577 (1996)). […]

Caco-2 cells = experiment: Transepithelial electrical resistance of Caco-2 monolayers after low calcium medium; assay type: cell-based, human; details: Caco-2, peptides at final concentration 100 μM, FIG. 2
Method: FIG. 2 is a graph showing inhibition of occludin-dependent intercellular adhesion using extracellular loop peptides corresponding to the N-terminal half of occludin extracellular loop #1 (peptide 1, SEQ ID NO 3) and the C-terminal half of extracellular loop #1 (peptide 2, SEQ ID NO 4) compared with an irrelevant peptide (peptide 3, SEQ ID NO 6). Caco-2 cells were plated on Falcon transwell cell culture inserts in DMEM supplemented with 10% fetal bovine serum and allowed to attach for 24 hours. Confluent monolayers were washed three times with calcium- and magnesium-free phosphate buffered saline and incubated in low calcium medium (supplemented with 5% dialyzed fetal bovine serum) for 24 hours. Transepithelial electrical ressitance was measured (time 0) and an equal volume of 2× DMEM/20% fetal bovine serum was added to all wells. To some wells, peptides were added with the fresh media. All peptides were added to a final concentration of 100 μM; transepithelial electrical resistance was measured in 3 wells of each treatment condition. Symbols represent the mean and standard deviation of each measurement.
Introduction of occludin into fibroblasts causes them to become adhesive. […] FIG. 2 provides data showing this same peptide inhibits transmonolayer electrical resistance in cultured human colonic epithelial cells. Thus, the peptides are occludin inhibitors.

[2] = tested on: occludin-transfected fibroblasts (NRK cell clone, N2occ cells); experiment: Cell adhesion (suspended cell aggregation) assay, occludin-transfected NRK fibroblasts (N2occ); assay type: cell-based, rat; details: for inhibition of occludin-induced adhesion: NRK cell clone, peptide at 100 μM, 80 minutes
Method: Peptides were added in equal volumes of PBS at the start of the incubation period; extent of aggregation is shown after 80 minutes of incubation. Loop peptides represent contiguous sequences in the first extracellular loop; the internal peptide has the same pI as loop peptide #1. Peptide sequences are given in the Examples section. One of three experiments with identical results is shown.
For immunofluorescent localization studies, cells were grown on glass coverslips. […] MDCK cells were transfected and induced with sodium butyrate as described above and stable cells lines were plated and induced as described for immunoblots. Cells were washed with PBS, fixed in 1% paraformaldehyde in PBS, extracted with 0.1% Triton-X 100 and quenched with 50 mM NH4Cl in PBS. In experiments to test the accessibility to the anti-peptide #1 antibody, incubation of the primary antibody was performed without permeabilization of cells with Triton-X 100. Cells were blocked for 1 hour in PBS plus 2% goat serum, incubated in primary antibodies (anti-VSV-G at 10 ug/ml, guinea pig anti-occludin at 1:250, and anti-ZO-1 at 1:300; affinity-purified anti-peptide #1 antibody at 1:10) for 1 hour, washed and incubated in affinity-purified secondary antibodies (1:100) for 1 hour. Cells were washed, dipped in H2O and mounted in Vectashield (Vector Laboratories). The samples were examined with a Nikon Microfot-FX epifluorescence microscope; photographs were taken with TMAX400 film (Kodak, Rochester, NY) using the automatic exposure setting. Cell Adhesion Assay Adhesion of stably transfected cell lines was measured by a modification of the procedure described by Wesseling, J., et al., Mol. Biol. Cell 7:565-577 (1996). Cell lines were plated and induced with sodium butyrate as described above. Cell layers were rinsed twice with Ca^2+-Mg^2+-free PBS and then incubated for 30 minutes in Ca^2+-Mg^2+-free PBS plus 1 mM EDTA and 0.1 mg/ml DNAse. After 30 minutes, cells were mechanically dissociated, counted and resuspended at a concentration of 2.5×10^5 cells/ml in Ca^2+-Mg^2+-free PBS, 1 mM EDTA and 0.1 mg/ml DNAse. For each condition, the adhesion assay was performed in duplicate in two 50-ml conical tubes on a rotating platform at 80 rpm at 25° C. At each time point, the number of particles in two 175 ul aliquot of each tube was determined in a Coulter Counter (Hialeah, FL). The amount of adhesion was represented by Nt/N0, where N0 was the initial number of particles in each sample (the starting number of single cells), and Nt was the number at each time point. 100% of cells were single at the beginning of all assays, as determined by phase-contrast microscopy. Some experiments were performed in the presence of the peptides described above.
The ability of transfected occludin to confer adhesion onto fibroblast cell lines was assessed using a suspended cell aggregation assay (Wesseling, J., et al., Mol. Biol. Cell 7: 565-577 (1996)). All cells were counted as single particles at the beginning of the assay and any decrease in the fraction of particles over the 80 minute assay was the result of aggregates which are excluded by the Coulter Counter. Aggregation was qualitatively confirmed by light microscopic inspection and correlated with results quantified by the Coulter Counter. Immunofluorescence confirmed that ZO-1 and occludin are clustered between adherent cells after the 80 minute assay. […]

human occludin = target: T1, human occludin; experiment: cell-based or functional assay

apparent Ki for inhibition of occludin-induced adhesion (human occludin) [µM]	Molecule	inhibition of occludin-induced adhesion [1]	inhibition of transepithelial (transmonolayer) electrical resistance (Caco-2 cells)	inhibition of occludin-induced adhesion [2]	reversal of adhesion ([2]; peptide at 10 μM)	Ki ([2]; fibroblast adhesion assay, peptides tested at 1, 10 and 100 μM, read-out: apparent Ki (inhibition of adhesion)) [µM]	inhibiting occludin-dependent cell adhesion ([2]; same concentration range (1, 10 and 100 μM))
–	CDRGYGTSLLGGSVGYPYGGSGFG [peptide #1]	completely inhibited adhesion	inhibition	completely inhibited adhesion	approximately half	–	–
–	CSYGSGYGYGYGYGYGYGGYTDPR [peptide #2]	completely inhibited adhesion	inhibition	completely inhibited adhesion	–	10 to 100	–
–	NHYAPSNDIYGGEMVHRPML (peptide construct used in experiments) [internal occludin peptide, reference compound]	–	–	–	–	–	ineffective
~10	B1	–	–	–	–	–	–
